Reference: PMC12032302, “A20 attenuates oxidized self-DNA-mediated inflammation in acute kidney injury” (Signal Transduction and Targeted Therapy, 2025)
“Also recorded” adds a separate entry of the source. Residues, ends and D or L forms follow the SMILES beside them.

How the values were obtained:
HA-NEK7 K140A = experiment: biotin-P-II immunoprecipitation of HA-NEK7 K140A; format: binding, mouse; details: co-IP with biotin-labeled P-II, HEK293T lysates, overnight 4 °C, immunoblot; Fig. 7c
Procedure: For biotin mediated immunoprecipitation, plasmids of HA-NEK7 (WT, K130A, L132R, K140A and Tri-MUT) were transfected into HEK293T cells for 2 days. Then, cells were lysed in MLB with inhibitor cocktail for 10 min at 4 °C. Cell lysates were collected and centrifuged at 12,000 rpm for 15 min at 4 °C and the supernatant was incubated with biotin conjunction peptide overnight at 4 °C. On the next day, streptavidin magnetic beads(Invitrogen, Lot#91221939) were added and incubated for 1 h. The immunocoprecipitated protein was then subjected to washing, heating, and western blot analysis.
(§1) Mouse HA-NEK7, FlAG-A20, and NLRP3 cDNA were amplified by employing standard PCR techniques from a mouse cDNA library. Subsequently, diverse cDNAs were inserted into mammalian expression vectors pcDNA3.1(+), pRK5, or pCMV6 with 3×Flag or 3×HA tags. For transient transfections, Lipofectamine 3000 was utilized according to the manufacturer’s instructions.

AKI mice = experiment: survival of AKI mice; format: in vivo, mouse; details: Cis-treated mice; A20-derived peptide 15 mg/kg i.p., pretreated; n = 10 per group
Procedure: Aristolochic acid I sodium salt was dissolved in PBS to 1 mg/mL and injected intraperitoneally at a dose of 10 mg/kg (body weight) every 24 h for 3 days; cisplatin was dissolved in PBS to 1.5 mg/mL for one-time intraperitoneal 25 mg/kg injection; LPS (Sigma, Cat#L2630) was dissolved in PBS to 2.5 mg/mL for one-time intraperitoneal 25 mg/kg injection; deoxyribonuclease I (DNase I, Sigma, Cat#SLBV1446) was dissolved in PBS to 1 mg/mL and injected intraperitoneally at a dose of 10 mg/kg at 4 h before cisplatin or AA I injection and every 24 h after injection. Disulfiram (MedChemExpress, CAS:97-77-8) was diluted in corn oil to 12.5 mg/mL and injected 50 mg/kg intraperitoneally every 24 h after cisplatin or AA I administration. Cu(II) (Sigma, Cat#344419) was dissolved in PBS to 30 µg/mL and administered intraperitoneally 6 h before disulfiram at a dose of 0.15 mg/kg; TNF-α (Peprotech, Cat#315-01 A) was dissolved in PBS to 10 µg/mL and injected at 100 µg/kg once through the caudal vein 24 h before cisplatin injection. Metformin (Sigma, Cat#D150959) was dissolved in PBS to 5 mg/mL and injected intraperitoneally at a dose of 50 mg/kg 24 h before cisplatin or AA I injection and every 24 h after injection. MCC950 (MedChem Express, CAS:256373-96-3) was dissolved in PBS to 5 mg/mL and injected intraperitoneally at a dose of 50 mg/kg 12 h before cisplatin or AA I injection and every 12 h after injection; berberine (APExBIO, Cat#N1368) was dissolved in PBS to 5 mg/mL and 5 mg/kg injected intraperitoneally at 36, 24 and 12 h before cisplatin; A20-derived-peptide was dissolved in ddH2O to 3 mg/mL and injected intraperitoneally at a dose of 15 mg/kg 1 h before cisplatin. To supervise the effects of various treatments on survival time and rate, the mice were observed, and survival curves were generated. To investigate the specific mechanisms, whole blood was retrieved from the orbit, serum was separated through centrifugation on the 4th day, and the mice were then sacrificed by cervical dislocation. Mice were randomly assigned in experiments, while there was no blinding during the animal experiments.

NEK7 and NLRP3 complex = experiment: interaction of NEK7 and NLRP3 complex; format: binding
Procedure: Cells were lysed in mild lysis buffer with a protease inhibitor cocktail (Cell Signaling Technology, Cat#5872S) on ice for 10 min to perform the coimmunoprecipitation (co-IP) assay. Samples were then centrifuged at 12,000 rpm at 4 °C for 10 min, and the supernatant was incubated with the corresponding primary antibody (anti-HA, 1:100, Cell Signaling Technology, Cat#3724S) overnight at 4 °C. On the next day, magnetic beads were added and incubated for 1 h. The immunocoprecipitated protein was washed three times by MLB and then heated with 4× Laemmli loading buffer at 100 °C for 10 min. Samples were then subjected to western blot analysis.

HA-Tri-MUT-NEK7 = molecular target: T1, HA-Tri-MUT-NEK7 (Mus musculus, UniProt Q9ES74, K130A/K140A/L132R); experiment: BLI analysis of NEK7 and P-II, HA-Tri-MUT-NEK7; format: binding; details: K130, L132 and K140 mutated, Fig. 7d
T1 construct: 3×HA; made in house; host or cells: HEK293T
Text: For BLI analysis, 3×HA-WT-NEK7 or 3×HA-Tri-MUT-NEK7 plasmids were transfected into HEK293T cells. Post-transfection, proteins were purified with HA antibody via coimmunoprecipitation and then eluted with 0.1 M glycine, Ph2.0. Then, samples were neutralized with 3 M NaOH and subjected to BLI analysis.
as §1
(§2) Bio-Layer Interferometry (BLI) analysis
(§3) The peptide (Bootech BioScience &Technology) was immobilized separately on Octet® AR2G Biosensors (Sartorius, Lot#2308017311) at a concentration of 400 μg/ml for 500 s. Association and dissociation curves were obtained through the addition of a dilution series of recombinant human NEK7 protein (SinoBiological, CAT#11534-H20B) (39.0625 to 1250 nM) for 120 s followed by dissociation for 120 s. Interference patterns for association or dissociation were measured in real-time to generate a response profile on the Octet® System Octet 96 Red instrument (Sartorius). A 1:1 binding model was used to evaluate the Kinetic parameter.

[1] = system: recombinant human NEK7 protein; experiment: BLI analysis of recombinant human NEK7 and P-II; details: Supplementary Fig. 4e, peptide immobilized on AR2G biosensors 400 μg/ml, recombinant human NEK7 39.0625 to 1250 nM, 1:1 binding model
Procedure: as §2, §3

T1 sequence (Q9ES74 whole entry K130A/L132R/K140A): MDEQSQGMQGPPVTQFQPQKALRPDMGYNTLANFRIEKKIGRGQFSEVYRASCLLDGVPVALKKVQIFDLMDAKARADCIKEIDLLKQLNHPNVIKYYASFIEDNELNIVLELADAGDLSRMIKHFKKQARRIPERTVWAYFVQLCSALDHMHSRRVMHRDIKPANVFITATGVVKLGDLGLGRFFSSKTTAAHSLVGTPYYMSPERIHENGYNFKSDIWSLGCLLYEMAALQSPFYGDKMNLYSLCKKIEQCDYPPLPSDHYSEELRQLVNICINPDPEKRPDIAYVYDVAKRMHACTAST

SMILES: CSCC[C@H](NC(=O)[C@H](Cc1ccc(O)cc1)NC(=O)[C@H](CCC(N)=O)NC(=O)[C@H](CS)NC(=O)[C@H](C)NC(=O)[C@H](C)NC(=O)[C@H](Cc1c[nH]cn1)NC(=O)[C@H](CCSC)NC(=O)[C@H](CC(C)C)NC(=O)[C@H](CS)NC(=O)[C@H](CC(N)=O)NC(=O)CNC(=O)[C@H](CC(=O)O)NC(=O)CNC(=O)[C@H](CC(N)=O)NC(=O)[C@@H](NC(=O)[C@H](CCCCN)NC(=O)[C@H](CC(C)C)NC(=O)[C@H](C)NC(=O)[C@@H](NC(=O)[C@H](CC(C)C)NC(=O)[C@@H](N)CCCCN)C(C)C)[C@@H](C)O)C(=O)N[C@@H](Cc1c[nH]c2ccccc12)C(=O)NCC(=O)N[C@H](C(=O)N[C@@H](CCC(N)=O)C(=O)N[C@@H](CC(=O)O)C(=O)N[C@H](C(=O)N[C@@H](CC(=O)O)C(=O)O)[C@@H](C)O)C(C)C [P-II] (H-KLVALKTNGDGNCLMHAACQYMWGVQDTD-OH; N-terminus and C-terminus assumed)
- binding of NEK7 and P-II, effect of K140A mutation (HA-NEK7 K140A): significantly attenuate the binding of NEK7 and P-II; also recorded: Lys140 of NEK7 is crucial for this binding
- survival (AKI mice): improved the survival of mice
- interference with NEK7-NLRP3 interaction (NEK7 and NLRP3 complex): interfere with the interaction between NEK7 and NLRP3 through Lys140 of NEK7; also recorded: interfering the binding of NEK7 to NLRP3 complex
- affinity of NEK7 for P-II, effect of simultaneous mutation of three residues (HA-Tri-MUT-NEK7): abrogated the affinity of NEK7 for P-II
- affinity for NEK7 (in words) [1]: high affinity to NEK7 protein
